Article PMC10945332, “Precision peptide theranostics: developing N- to C-terminus optimized theranostics targeting cholecystokinin-2 receptor” (Theranostics, 2024)
Like-named read-outs stand apart in the source and are kept apart here. Where a SMILES comes first, the peptide text is derived from it. [ ]: non-standard residue; d: D form. The star is where a group is joined. DOTA = O=C(O)CN1CCN(CC(=O)O)CCN(CC(=O)*)CCN(CC(=O)O)CC1; 1Nal = N[C@@H](Cc1cccc2ccccc12)C(=O)O; NMeNle = CCCC[C@H](NC)C(=O)O; Sar = CNCC(=O)O

Experiments:
human CCK2R = biological target: T1, human CCK2R (Homo sapiens, UniProt P32239); assay: Competitive binding against [177Lu]Lu-DOTA-CP04 in A431-CCK2R cells; details: for IC50: N-terminal free linear peptides, vs [177Lu]Lu-DOTA-CP04 in A431-CCK2R cells, average of 2-4 biological replicates, read-out: IC50
T1 construct: stably transfected to over-express the human full-length CCK2R (A431-CCK2R); expressed in transfected cells
T1 sequence (P32239 1-447): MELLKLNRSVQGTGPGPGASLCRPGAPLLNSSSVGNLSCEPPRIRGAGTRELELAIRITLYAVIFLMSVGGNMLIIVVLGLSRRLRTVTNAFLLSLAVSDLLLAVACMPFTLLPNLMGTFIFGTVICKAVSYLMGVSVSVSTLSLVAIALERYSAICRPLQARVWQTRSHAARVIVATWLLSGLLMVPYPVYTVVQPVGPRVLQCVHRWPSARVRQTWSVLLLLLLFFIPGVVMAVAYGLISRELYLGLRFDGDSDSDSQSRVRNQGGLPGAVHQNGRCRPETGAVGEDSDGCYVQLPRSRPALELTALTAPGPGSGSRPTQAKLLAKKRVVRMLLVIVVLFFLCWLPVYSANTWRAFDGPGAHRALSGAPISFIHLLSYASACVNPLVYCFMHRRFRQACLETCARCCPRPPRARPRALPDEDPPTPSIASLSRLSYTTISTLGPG
Method: Materials and Methods: Biology […]
In Vitro CCK2R-Ligand Competitive Binding Assays
All CCK2R binding experiments were conducted using A431 (human epidermoid carcinoma) […]
cells stably transfected to over-express the human full-length CCK2R (A431-CCK2R) (gifted […]
by Dr. Elisabeth von Guggenberg, Medizinische Universität Innsbruck).[41] As a negative […]
control, A431 cells stably transfected with an empty vector were analysed simultaneously […]
(A431-EV). All A431 cells were maintained in DMEM (Gibco, Australia) media supplemented […]
with 10% foetal calf serum and 250 µg/mL G418 as described previously.[32]
The affinity of all peptides for the CCK2R was evaluated using competitive binding assays […]
Briefly, 48 hours before the experiment […]
cells were plated at a density of 300,000 cells per well in 12 well plates. On the day of the […]
experiment, linear peptides were diluted in DMEM supplemented with 1% foetal calf serum to […]
DOTA-CP04 was added to each dilution. Cells were washed twice in ice-cold binding buffer […]
(DMEM supplemented with 1% foetal calf serum) and resuspended in 1 mL of the pre-prepared […]
peptide mix before being incubated at room temperature for 1 hour. Post-incubation the media […]
was removed and kept for analysis (unbound fraction) and the cells were washed twice in ice- […]
cold PBS which was pooled with the unbound fraction. Finally, 1 M NaOH (150µL) was added […]
to the wells and allowed to incubate for 5 min before lysates were collected (bound fraction).
A small volume of lysate was kept aside to determine protein concentration using the Pierce® BCA protein assay kit (Thermo Fisher, Australia). All samples were analysed using the Perkin […]
normalised according to protein concentration. Half maximal inhibitory concentration (IC50) was determined using nonlinear regression calculated using Gr aphPad Prism Software (GraphPad Software, California, USA). […]

[1] = format: physicochemical
Method: Lipophilicity, expressed as the octanol-water partition coefficient, constitutes an important property in drug action, influencing both pharmacokinetic and pharmacodynamics processes. The distribution coefficient (LogD7.4) of [^68Ga]Ga-DOTA-peptides was determined by measuring radioactivity distribution in the aqueous phase (phosphate buffer pH7.4) and the organic phase (n-octanol). […]
To determine the distribution coefficient (logD 7.4), 68Ga radiolabeled peptides [68Ga]Ga-DOTA-GA4, [68Ga]Ga-DOTA-GA7, and [68Ga]Ga-DOTA-GA11–GA13 were diluted to approximately 20 pmol/mL in PBS (pH 7.4) and an equal volume of n-octanol was added. The mixture was vortexed vigorously for 10 cycles of 1 min at room temperature before being centrifuged for 6 min to separate the two phases. Equal volumes from each phase were aliquoted into individual counting tubes and analysed for 1 min using the Perkin Elmer 2480 Wizard2™ gamma counter (PerkinElmer, Massachusetts, USA). The distribution coefficient was calculated using the following equation LogD = […]. […]

[2] = format: in vitro ADME, mouse; details: mouse, tissue homogenate
Method: Metabolic stability is an important determinant of the efficacy of peptide radiopharmaceuticals and their progression as promising theranostic candidates. In vitro, metabolic degradation through hepatic and renal enzymes can be assessed by utilizing liver and kidney tissue homogenates. Radiolabeled peptides [^68Ga]Ga-DOTA-GA4, and D-Ala substituted variants [^68Ga]Ga-DOTA-GA7, [^68Ga]Ga-DOTA-GA11-GA13 were incubated in liver and kidney mouse homogenates, in human serum at 37°C, and in HEPES buffer (pH 7.4) as a negative control. Following a time course experiment, the metabolites were analyzed using HPLC to quantify the % breakdown of the respective parent peptide. […]
To assess the stability of 68Ga radiolabeled peptides against enzymatic degradation, duplicate samples (750-900 pmol/mL, 2-5MBq) were incubated at 37 ℃ with pooled human serum, 15% […]
mouse kidney homogenate, 30% mouse liver homogenate or 20 mM HEPES, pH 7.3 (control).
Human blood was collected, and serum prepared using SSTII advance vacutainer tubes according to the manufacturer’s instructions (Becton Dickinson, New Jersey, USA). Mouse kidney and liver homogenates were prepared by washing the tissues in ice-cold HEPES buffer, pH 7.3 and placing them in pre-chilled tubes containing HEPES buffer and 2.38 mm metal beads (Mo-Bio Laboratories, Hilden, Germany). Tissues were homogenised using the PowerLyzer24 homogeniser (Qiagen, Hilden, Germany) according to the manufacturer’s instructions. 68Ga radiolabeled peptides were then incubated with the various lysates at 37 ℃ and samples were collected at 15, 30, 60 and 90 min. Reactions were terminated by addition of an equal volume of acetonitrile and centrifugation for 2 min at 15,000 rpm. Supernatants were diluted in water before being analysed by HPLC using a Kinetex C18 XB column (5µm

[3] = mouse, in vivo
Method: (§1) In order to assess these promising ligands as potential theranostics, the library of [^68Ga]Ga-DOTA-peptides was evaluated using static small animal PET imaging and quantifying biodistribution studies. This study was performed to investigate tumor uptake as well as the accumulation of radioligands in other organs. Mice bearing A431-CCK2R tumors were imaged at 1- and 2 hours post tracer injection, and tracer biodistribution was evaluated at the 1 hour and 2.5 hour time points to quantify tumor uptake and retention. […]
(§2) Small Animal PET Imaging and Biodistribution Studies
(§3) Female NSG mice (age 11-14 weeks) were sourced from Animal Resources Centre, (Canning Vale, Western Australia) and were inoculated subcutaneously on the right flank with 1-3 x 106 […]
(§4) A431-CCK2R cells in PBS:Matrigel (1:1). […]
(§5) Mice were assigned to imaging and/or biodistribution groups (tumour volumes: 119-327 mm3).
(§6) The respective 68Ga labelled tracer (1.63–3.81 MBq, 170µL, 13.7–14.2 pmoles) containing vehicle solution (75µL, DMSO:Tween 80: water, 2:2:6 v/v/v) was then administered to mice intravenously via tail vein injection. Three mice were euthanized for biodistribution 1 hour post injection (n=3) and selected tissues were excised, weighed, and counted using a Capintec (Captus 4000e) gamma counter. Three mice were anaesthetised using 1.5% isoflurane and imaged at 1 hour (n=3) and 2 hours (n=3) with a G8 Small Animal PET/CT scanner (Perkin […]
(§7) Elmer/Sofie Biosciences). A 10 min static PET scan was acquired, followed immediately by a CT scan (Supplementary Data, pS51–S55). PET images were acquired using the G8 acquisition engine software and reconstructed using a 3D maximal likelihood and expectation maximization (ML-EM) algorithm. PET images were analysed using VivoQuant software, version 3.0 (inviCRO Imaging Services and Software) to quantify maximum standardised uptake value in regions of interest (SUVmax). Background regions for imaging experiments were calculated by quantitating mean standardised uptake value (SUVmean) of the abdomen and gut region. The region of interest was selected due to low uptake in abdomen/gut during imaging. After imaging the 2-hour time point, mice organs were harvested for biodistribution […]
(§8) For blocking CCK2R binding a solution of N-[(3R)-2,3-Dihydro-1-[2-(2-methylphenyl)-2-oxoethyl]-2-oxo-5-phenyl-1H-1,4-benzodiazepin-3-yl]-N′-(3-methylphenyl)-urea (YM022; Sigma Aldrich) was used. YM022 (75µL of a 1 mg/ml solution constituting DMSO:Tween 80: water, 2:2:6 v/v/v) was added to the respective 68Ga labelled tracer (1.41–3.61 MBq, 100 µL, 13.7–14.2 pmoles) and this mixture ([…]) was administered in three mice intravenously via tail vein injection and organs harvested at 1 hour post injection for biodistribution analysis, as above.
(§9) All animal experiments were performed with the approval of the Peter MacCallum Cancer Centre Animal Experimentation Ethics Committee and in accordance with the Australian code for the care and use of animals for scientific purposes, 8th Edition, 2013 (AEEC Approval

in vivo = details: female, NSG, mouse, iv, total radioactivity
Method: as §1, §2, §3, §4, §5, §6, §7, §8, §9

`CCCC[C@@H](C(=O)N[C@@H](CC(=O)O)C(=O)N[C@@H](Cc1cccc2ccccc12)C(N)=O)N(C)C(=O)[C@H](Cc1c[nH]c2ccccc12)NC(=O)CN(C)C(=O)[C@H](Cc1ccc(O)cc1)NC(=O)[C@H](C)NC(=O)[C@@H](CCC(=O)O)NC(=O)[C@@H](CCC(=O)O)NC(=O)[C@@H](CCC(=O)O)NC(=O)[C@@H](CCC(=O)O)NC(=O)[C@@H](C)NC(=O)[C@H](N)CCC(=O)O` [GA6] (H-[dE][dA][dE][dE][dE][dE]AY[Sar]W[NMeNle]D[1Nal]-NH2) gave an IC50 (human CCK2R) of 1.23 nM.
For `CCCC[C@@H](C(=O)N[C@@H](CC(=O)O)C(=O)N[C@@H](Cc1cccc2ccccc12)C(N)=O)N(C)C(=O)[C@H](Cc1c[nH]c2ccccc12)NC(=O)CN(C)C(=O)[C@H](Cc1ccc(O)cc1)NC(=O)[C@H](C)NC(=O)[C@@H](CCC(=O)O)NC(=O)[C@@H](CCC(=O)O)NC(=O)[C@@H](CCC(=O)O)NC(=O)[C@@H](C)NC(=O)[C@@H](CCC(=O)O)NC(=O)[C@H](N)CCC(=O)O` [GA7] (H-[dE][dE][dA][dE][dE][dE]AY[Sar]W[NMeNle]D[1Nal]-NH2), the IC50 (human CCK2R) was 0.184 nM, the “fold improvement of activity over CP04” value (human CCK2R; linear peptides) was “greater than 10 fold” and the “fold improvement of affinity over GA1” value (human CCK2R; linear peptides) was about 2 fold.
For `CCCC[C@@H](C(=O)N[C@@H](CC(=O)O)C(=O)N[C@@H](Cc1cccc2ccccc12)C(N)=O)N(C)C(=O)[C@H](Cc1c[nH]c2ccccc12)NC(=O)CN(C)C(=O)[C@H](Cc1ccc(O)cc1)NC(=O)[C@H](C)NC(=O)[C@@H](CCC(=O)O)NC(=O)[C@@H](CCC(=O)O)NC(=O)[C@@H](C)NC(=O)[C@@H](CCC(=O)O)NC(=O)[C@@H](CCC(=O)O)NC(=O)[C@H](N)CCC(=O)O` [GA8] (H-[dE][dE][dE][dA][dE][dE]AY[Sar]W[NMeNle]D[1Nal]-NH2), the IC50 (human CCK2R) was 1.62 nM.
For `CCCC[C@@H](C(=O)N[C@@H](CC(=O)O)C(=O)N[C@@H](Cc1cccc2ccccc12)C(N)=O)N(C)C(=O)[C@H](Cc1c[nH]c2ccccc12)NC(=O)CN(C)C(=O)[C@H](Cc1ccc(O)cc1)NC(=O)[C@H](C)NC(=O)[C@@H](C)NC(=O)[C@@H](CCC(=O)O)NC(=O)[C@@H](CCC(=O)O)NC(=O)[C@@H](CCC(=O)O)NC(=O)[C@@H](CCC(=O)O)NC(=O)[C@H](N)CCC(=O)O` [GA10] (H-[dE][dE][dE][dE][dE][dA]AY[Sar]W[NMeNle]D[1Nal]-NH2), the IC50 (human CCK2R) was 1.62 nM.
Compound `CCCC[C@@H](C(=O)N[C@@H](CC(=O)O)C(=O)N[C@@H](Cc1cccc2ccccc12)C(N)=O)N(C)C(=O)[C@H](Cc1c[nH]c2ccccc12)NC(=O)CN(C)C(=O)[C@H](Cc1ccc(O)cc1)NC(=O)[C@H](C)NC(=O)[C@@H](CCC(=O)O)NC(=O)[C@@H](CCC(=O)O)NC(=O)[C@@H](CCC(=O)O)NC(=O)[C@@H](C)NC(=O)[C@@H](CCC(=O)O)NC(=O)[C@@H](CCC(=O)O)NC(=O)CN1CCN(CC(=O)O)CCN(CC(=O)O)CCN(CC(=O)O)CC1` [[^68Ga]Ga-DOTA-GA7, metal not drawn] ({DOTA}-[dE][dE][dA][dE][dE][dE]AY[Sar]W[NMeNle]D[1Nal]-NH2) has a logD [1] of -2.88 ± 0.09, a half-life ([2]; Half-life (t1/2) in Kidney Homogenate) of 3.76 h and a half-life ([2]; Half-life (t1/2) in Liver Homogenate) of 5.87 h. For the same compound, the tissue uptake at 1 h ([3]; 3 mg/kg, Uptake in A431-CCK2R Tumors, 1 hr Blocked) was 2.76 ± 0.14 %ID/g, the tissue uptake at 1 h ([3]; Uptake in A431-CCK2R Tumors, 1 hr) was 5.71 ± 1.5 %ID/g and the tissue uptake at 2.5 h ([3]; Uptake in A431-CCK2R Tumors, 2.5 hr) was 7.36 ± 1.16 %ID/g. It also gave a tissue uptake at 1 h ([3]; Uptake in Organs: Blood) of 0.68 ± 0.31 %ID/g, a tissue uptake at 1 h ([3]; Uptake in Organs: Heart) of 0.3 ± 0.02 %ID/g and a tissue uptake at 1 h ([3]; Uptake in Organs: Kidneys) of 8.67 ± 0.8 %ID/g. It also gave a tissue uptake at 1 h ([3]; Uptake in Organs: Liver) of 0.3 ± 0.01 %ID/g, a tissue uptake at 1 h ([3]; Uptake in Organs: Lungs) of 0.57 ± 0.03 %ID/g and a tissue uptake at 1 h ([3]; Uptake in Organs: Muscle) of 0.12 ± 0.02 %ID/g. The tissue uptake at 1 h ([3]; Uptake in Organs: Spleen) was 0.24 ± 0.02 %ID/g, the tissue uptake at 1 h ([3]; Uptake in Organs: Stomach) was 2.22 ± 0.14 %ID/g and the tissue to tissue ratio at 1 h (in vivo) was 17.3 ± 1.84. For the same compound, the SUV at 1 h (in vivo; SUVmax) was 0.65 SUV and the SUV at 2 h (in vivo; SUVmax) was 0.61 SUV.
